The record followed here is patent publication US20240208940A1, “SMALL-MOLECULE INHIBITORS FOR BETA-CATENIN/BCELL LYMPHOMA 9 PROTEIN-PROTEIN INTERACTION” (H. LEE MOFFITT CANCER CENTER AND RESEARCH INSTITUTE, INC., priority 2021, published 2024).

As a reminder, the Ki is a measure of affinity in units of concentration, obtained from inhibition or displacement. By IC50 is commonly meant the point on the concentration scale where inhibition reaches its midpoint.

Counter-ions that a name gives are not always drawn.

The target in one test is full-length β-catenin (Homo sapiens (Human), UniProt P35222). Description: Streptavidin protein pull-down from SW480 cell lysates. It is filed as binding. The following applies: 1 μM. As for the experimental part:
Pull-Down Experiments. Colorectal cancer SW480 cells (70-80% confluency) in T75 flask were lysed first in 1 mL buffer A containing 50 mM Tris (pH 7.4), 150 mM NaCl, 1% Nonidet P-40, 2 mM EDTA, and protease inhibitors. Cell debris was removed by centrifugation at 10,000 g for 20 min at 4° C. To 500 μL SW480 cell lysates was added 1 or 10 μM Biotin-36 and the mixture was incubated at 4° C. for 3 h. Then, 25 μL Streptavidin Sepharose beads (5-1638, Sigma) were added to the lysate mixture and rotated at 4° C. for 2 h. The lysate mixture was centrifuged at 4000 rpm for 2 min at 4° C. The beads were washed with buffer B (20 mM Tris pH 7.4, 150 mM NaCl, 0.1% NP-40) for 4 times. The beads were resuspended in 60 μL of 2×SDS sample buffer. After boiling, the samples were loaded onto 8% SDS polyacrylamide gel for electrophoretic analysis. Separated proteins were transferred onto nitrocellulose membranes for immunoblot analysis. The antibody against β-catenin (610153, BD Biosciences) were incubated with the membranes. IRDye 680LT goat anti-mouse IgG (827-11080, LiCOR) was used as the secondary antibody. The images were detected by the Odyssey Infrared Imaging System (LiCOR). Experiments were performed in duplicate.

The next test has as its target β-catenin/BCL9 PPI (Homo sapiens (Human), UniProt P35222). Description: AlphaScreen competitive inhibition assay of β-catenin/BCL9 PPI. It is filed as binding. The following applies: mean ± standard deviation (n = 3); for Ki: derived from IC50, read-out: Ki ± SD. As for the experimental part: AlphaScreen Assays of β-Catenin and BCL9 Interaction. Experiments were performed in white opaque 384-well plates from PerkinElmer (Waltham, MA), and the samples were read on a Biotek Synergy 2 plate reader (Winooski, VT) with excitation at 680 nm and emission at 570 nm. The standard AlphaScreen protocol was used with a sensitivity setting of 200. All dilutions were made in 1× assay buffer containing 25 mM Hepes (pH 7.4), 100 mM NaCl, 0.01% Triton X-100 and 0.1% BSA to minimize nonspecific interactions. For the competitive inhibition assays of β-catenin/BCL9 PPI, the negative control (equivalent to 0% inhibition) refers to 5.0 nM biotinylated BCL9, 50 nM His6-tagged β-catenin, and 10 μg/mL donor and acceptor beads in a final volume of 25 μL assay buffer, but no tested inhibitor present. The positive control (equivalent to 100% inhibition) refers to 5.0 nM biotinylated BCL9 and 10 μg/mL donor and acceptor beads in a final volume of 25 μL assay buffer.
For the β-catenin/BCL9 assay, 5 nM biotinylated BCL9 and 50 nM His6-tagged β-catenin were incubated in assay buffer for 30 min. Different concentrations of the tested inhibitor were added and incubated in 20 μL assay buffer for another 1 h. All of the assay plates were covered and gently mixed on an orbital shaker. The donor and acceptor beads were then added to the plates to a final concentration of 10 μg/mL in 25 μL assay buffer. The mixture was incubated for 1 h before detection. The IC50 value was determined by nonlinear least-square analysis of GraphPad Prism 8.0. The Ki values were derived from the IC50 values using a method reported by Wang and coworkers.^65 The equation used is Ki=[I]50/([L]50/Kd+[P]0/Kd+1) (Where [I]50 denotes the concentration of the free inhibitor at 50% inhibition, [L]50 is the concentration of the free labeled ligand at 50% inhibition, [P]0 is the concentration of the free protein at 0% inhibition, and Kd is the dissociation constant of the protein-ligand complex). All of the experiments were performed in triplicate and carried out in the presence of 1% DMSO for small-molecule inhibitors. Each compound was assayed at least by three independent experiments. The results were expressed as mean±standard deviation.

Chain of β-catenin/BCL9 PPI (P35222 whole entry): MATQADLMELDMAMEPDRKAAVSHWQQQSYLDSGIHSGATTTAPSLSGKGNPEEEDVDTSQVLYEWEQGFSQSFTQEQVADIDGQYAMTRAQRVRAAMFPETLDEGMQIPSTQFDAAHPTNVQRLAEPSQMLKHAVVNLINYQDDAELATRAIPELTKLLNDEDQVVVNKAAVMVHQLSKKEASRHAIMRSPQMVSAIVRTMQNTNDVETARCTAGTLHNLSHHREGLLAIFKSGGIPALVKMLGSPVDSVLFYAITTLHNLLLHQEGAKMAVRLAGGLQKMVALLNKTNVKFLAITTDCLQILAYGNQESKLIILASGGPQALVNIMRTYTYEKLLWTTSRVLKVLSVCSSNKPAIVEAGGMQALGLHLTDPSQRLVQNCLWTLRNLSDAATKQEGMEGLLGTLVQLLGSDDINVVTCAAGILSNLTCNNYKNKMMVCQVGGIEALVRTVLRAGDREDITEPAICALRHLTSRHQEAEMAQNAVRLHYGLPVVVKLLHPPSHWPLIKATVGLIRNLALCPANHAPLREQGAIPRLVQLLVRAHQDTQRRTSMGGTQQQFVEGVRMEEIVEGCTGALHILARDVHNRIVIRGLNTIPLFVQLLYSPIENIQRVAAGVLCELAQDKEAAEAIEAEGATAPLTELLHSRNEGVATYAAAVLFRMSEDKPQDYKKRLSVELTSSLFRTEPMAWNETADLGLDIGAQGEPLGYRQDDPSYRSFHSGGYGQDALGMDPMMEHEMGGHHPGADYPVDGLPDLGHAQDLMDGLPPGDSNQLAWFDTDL
Chain of full-length β-catenin (P35222 whole entry): as above

Turning to `CC(C)(C)C1CCC(c2cc(C(=O)N3CCC(Oc4cc(N5CCNCC5)ccc4C#N)CC3)ccc2O[C@@H]2CNC[C@H]2OCCOCCOCCNC(=O)CCCC[C@@H]2SCC3NC(=O)NC32)CC1.O=C(O)C(F)(F)F.O=C(O)C(F)(F)F` (relative stereo) [Biotin-37, trans-N-(2-(2-(2-((4-(2-(cis- and trans-4-(tert-butyl)cyclohexyl)-4-(4-(2-cyano-5-(piperazin-1-yl)phenoxy)piperidine-1-carbonyl)phenoxy)pyrrolidin-3-yl)oxy)ethoxy)ethoxy)ethyl)-5-((4S)-2-oxohexahydro-1H-thieno[3,4-d]imidazol-4-yl)pentanamide ditrifluoroacetic acid], the “binding with β-catenin (pull-down, Western blot)” value on full-length β-catenin is recorded as “effectively bound with full-length β-catenin”. As to `O=C(c1ccc(O[C@H]2CCNC2)c(N2CCCCC2)c1)N1CCC(Oc2cc(F)cc(N3CCNCC3)c2)CC1` [Compound 25, (S)-(4-(3-fluoro-5-(piperazin-1-yl)phenoxy)piperidin-1-yl)(3-(piperidin-1-yl)-4-(pyrrolidin-3-yloxy)phenyl)methanone dihydrochloride], on β-catenin/BCL9 PPI, the Ki was not above 60 µM and the IC50 was not above 60 µM. Turning to `O=C(c1ccc(O[C@H]2CCNC2)c(N2CCC(C(F)(F)F)CC2)c1)N1CCC(Oc2cc(F)cc(N3CCNCC3)c2)CC1` [Compound 26, (S)-(4-(3-fluoro-5-(piperazin-1-yl)phenoxy)piperidin-1-yl)(4-(pyrrolidin-3-yloxy)-3-(4-(trifluoromethyl)piperidin-1-yl)phenyl)methanone dihydrochloride], at β-catenin/BCL9 PPI, the Ki was not above 100 µM and the half-maximal inhibitory concentration (IC50) was not above 100 µM. As to `CC(C)(C)C1CCN(c2cc(C(=O)N3CCC(Oc4cc(F)cc(N5CCNCC5)c4)CC3)ccc2O[C@H]2CCNC2)CC1` [Compound 27, (S)-(3-(4-(tert-butyl)piperidin-1-yl)-4-(pyrrolidin-3-yloxy)phenyl)(4-(3-fluoro-5-(piperazin-1-yl)phenoxy)piperidin-1-yl)methanone dihydrochloride], at β-catenin/BCL9 PPI, the inhibition constant Ki was not above 30 µM and the half-maximal inhibitory concentration (IC50) was not above 30 µM. As for `CC1(O)CCN(c2cc(C(=O)N3CCC(Oc4cc(F)cc(N5CCNCC5)c4)CC3)ccc2O[C@H]2CCNC2)CC1` [Compound 28], at β-catenin/BCL9 PPI, the Ki is not above 20 µM and the half-maximal inhibitory concentration (IC50) is not above 20 µM. For the compound `CC(C)(O)C1CCN(c2cc(C(=O)N3CCC(Oc4cc(F)cc(N5CCNCC5)c4)CC3)ccc2O[C@H]2CCNC2)CC1` [Compound 29, (4-(3-fluoro-5-(piperazin-1-yl)phenoxy)piperidin-1-yl)(3-(4-(2-hydroxypropan-2-yl)piperidin-1-yl)-4-(pyrrolidin-3-yloxy)phenyl)methanone], on β-catenin/BCL9 PPI, the Ki was not above 50 µM and the half-inhibitory concentration (IC50) was not above 50 µM. For the compound `CC(C)(C)[C@H]1CC[C@H](c2cc(C(=O)N3CCC(Oc4cc(N5CCNCC5)ccc4C#N)CC3)ccc2O[C@H]2CCNC2)CC1` [Compound 45], at β-catenin/BCL9 PPI, the Ki was not above 4 µM and the IC50 is not above 4 µM.
